Key:
Type in all cases: cell-based
regulatory T cells = experiment: Treg suppression of anti-CD3 mAb activated CD4+CD25- cell proliferation; conditions: for suppressive function of Treg on anti-CD3 mAb activated CD4+CD25- cells: pre-incubation of Treg with compound
Description: An assay in which the ability of isolated Treg to suppress anti-CD3 mAb activated CD4+CD25− cells was performed.
Regulatory T cells were isolated by the Dynal T regulatory cell isolation kit, and treated for 24 hours with varying concentrations of an immunomodulatory compound (Actimid™ or lenalidomide) or DMSO. The cells were washed and incubated at a 1:2 ratio with CD25^−CD4^+ cells, which were also isolated by the Dynal T regulatory cell isolation kit. Results were expressed as the mean % change in proliferation compared to the cpms obtained from DMSO treated CD25^+ cells incubated with CD25^− cells.

Raji cells = experiment: Direct effects on NHL tumor cells, alone or with anti CD20 antibodies; conditions: for effect in combination with anti CD20 antibody B1: 10 μM / up to 10 μM
Description: Direct effects of IMiDs on NHL tumor cells were tested by treating Raji cells with IMiDs alone, or in combination with anti CD20 antibodies B1 or rituxan. IMiD 1 alone caused up to 40% inhibition of proliferation at 10 μM in Raji cells, which corresponded to G1 arrest.

γδ T cells [1] = experiment: Apoptosis of γδ T cells (annexin V PE / 7-AAD); conditions: with or without IPP; FIG. 6
Description: Gamma delta T cells were treated with a single dose of 25 μM IPP and weekly with 150 U/ml of IL-2 for 4 weeks and 3 days. Cells were then either left untreated or treated with Actimid™, IPP or Actimid™ and IPP. Apoptosis was assessed by staining of cells with annexin V PE and 7-AAD at various time points and analysis using a FACSCalibur.
Gamma delta T cells were treated with a single dose of 25 μM IPP and weekly with 150 U/ml of IL-2 for 31 days. Cells were then either left untreated or treated with Actimid™, IPP, or Actimid™ and IPP in combination. Apoptosis was assessed by staining of cells with annexin V PE and 7-AAD at the stated time points and analysis using a FACSCalibur. Annexin V PE negative/7-AAD negative cells are designated live, annexin V PE positive/7-AAD negative early apoptotic, annexin V PE positive/7-AAD positive late apoptotic and annexin V PE negative/7-AAD positive dead.

γδ T cells [2] = experiment: Cytokine production by γδ T cells
Description: Purified γδ T cells were stimulated with IPP±IMiDs ([…]) or with the MM cell line RPMI-8226 (±IMiDs ([…])) in 24 well plates and were incubated 8-72 hours. Cell-free supernatants were collected and stored at −70° C. until assayed by ELISA. IFN-γ, TNF-α and IL-2 were measured by ELISA (BD pharmingen). For fresh δγ preps, PBMCs were stimulated with plate bound anti-CD3 (1.25 μg/ml) for 48 hours and the expression of TNF-α, IFNγ, IL-2 and IL-4 were measured by intracellular FACS on cells stained for γδ TCR.
The effects of Actimid™ on IFN-γ, TNF-α, and IL-4 were examined in freshly prepared γδ T cells and γδ T cell lines stimulated with IPP.

γδ T cells [3] = experiment: IFN-γ production by γδ T cells in co-culture with tumor cells; conditions: co-culture with RPMI-8226 MM cells, with or without pamidronate; FIG. 8
Description: Tumor cells pre-incubated with (FIG. 8B) or without (FIG. 8A) pamidronate were incubated with δγ T cells at different tumor (RPMI-8226 MM) to γδ T cells ratios as indicated in FIG. 8. Some of the cells were further treated by Actimid™. Intracellular IFN-gamma production was measured by flow cytometry.

RPMI-8226 MM cell lines = experiment: Cytotoxicity of γδ T cells, chromium release assay
Description: Gamma delta T cells were treated with a single dose of 25 μM IPP and weekly with 150 U/ml of IL-2 for 3 weeks and 1 day. RPMI-8226 target cells were incubated overnight with 50 μM pamidronate then treated with 3MBq 51Cr. Target, and effector cells were incubated at different ratios and chromium release was assayed after 4 hours. To determine the effects of Actimid™, the compound was either included in the 22 day preincubation before the assay and in the chromium release step, or was included during the chromium release assay.
Gamma delta cells were treated with a single dose of 25 μM IPP and weekly with 150 U/ml of IL-2 for 22 days. RPMI-8226 target cells were incubated overnight with 50 μM pamidronate, then treated with 3 MBq 51 Cr. Target and effector cells were incubated at various ratios with fresh Actimid™ and chromium release assayed after 4 hours. Actimid™ was also added to some wells for the 22 day pretreatment with IL-2 and IPP (FIG. 9A) or just for the 4 hr chromium release assay (FIG. 9B).

[4] = test system: Rituximab-resistant cell line 2R; experiment: Rituximab-mediated ADCC by primed PBMC, 51Cr release, 2R cells; conditions: E:T 40:1
Description: (§1) Rituximab-resistant cell lines (RRCL) were generated by chronic exposure of Raji cells to escalating doses of rituximab alone (2R) or along with human complement (4RH). […] To study the effects of lenalidomide-priming of PBMC's against RRCL, peripheral blood mononuclear cells from healthy donors were cultured with either DMSO or lenalidomide (at final concentrations of 10 or 20 μg/ml), with or without IL-2 (20 IU/ml), over a 5-day period at 37° C., 5% CO2. Parentral Raji, and RRCL (2R and 4RH) were labeled with ^51Cr and exposed to either rituximab or trastuzumab (Isotype control at 20 μg/ml) in the presence of an IMiD or control stimulated-PBMCs (Effector:Target ratio of 40:1). ^51Cr release was measured and the percentage of lysis was calculated. Statistical differences were analyzed by chi-square test.

[5] = test system: Rituximab-resistant cell line 4RH; experiment: Rituximab-mediated ADCC by primed PBMC, 51Cr release, 4RH cells
Description: as §1

Gab2 = Gab2 phosphorylation in anti-CD3/CD28 stimulated Jurkat T cells; conditions: at about 1 μM, dose-dependent
Excerpt: The Gab proteins, including Gab1, Gab2 and Gab3 comprise a growing family of phospho-tyrosine regulated scaffolding molecules involved in RTK signal transduction. Phosphorylation of Gab1 in B cells is associated with P13-kinase activity and cell proliferation. While Gab1 is expressed in B cells, only Gab2 is expressed in T cells. Although Gab2 is tyrosine phosphorylated upon TCR activation by ZAP-70, it functions as a negative regulator of TCR signaling via a Shp-2 dependent mechanism. Overexpression of Gab2 in T cells results in the inhibition of IL-2 production (Yamasaki et al., J. Biol. Chem., 2001). The effect of lenalidomide on Gab2 phosphorylation and activation in anti-CD3/CD28 stimulated Jurkat T cells was examined. Lenalidomide inhibited Gab2 phosphorylation dose-dependently (with approximately 50% inhibition at about 1 μM) in a manner that correlated with T cell costimulation and enhancement of IL-2 production.

Foxp3 = Foxp3 expression in CD4+CD25+ cells (intracellular staining); conditions: CD4+CD25+ cells incubated 24 hours; FIG. 3
Description: CD4^+CD25^+ cells were incubated for 24 hours with varying concentrations of DMSO, Actimid™, lenalidomide, or thalidomide and then washed twice with RPMI medium. Cells were stained with CD152-PE, CD4-PERCP, and CD25-APC. Intracellular Foxp3 staining and CD152 staining were carried out after permeabilizing the CD4^+ CD25^+ cells. Results were expressed as percentage of expression of Foxp3 in the CD4^+CD25^+ population or the CD4^+CD25^− population.

[6] = TCR γδ cells within freshly prepared PBMC population

Nc1cccc2c1C(=O)N(C1CCC(=O)NC1=O)C2=O (centres unmarked) [Actimid, 4-(amino)-2-(2,6-dioxo(3-piperidyl))-isoindoline-1,3-dione]
suppressive function of Treg on anti-CD3 mAb activated CD4+CD25- cells (regulatory T cells): inhibits the suppressive function
effect in combination with rituxan (Raji cells; 10 μM): slight additive effect
effect in combination with anti CD20 antibody B1 (Raji cells): small additive effect
apoptosis in γδ T cells (γδ T cells [1]): protection against apotosis
production of IFN-γ (γδ T cells [2]; [6]): enhanced
production of TNF-α (γδ T cells [2]; [6]): enhanced
production of IFN-γ (γδ T cells [2]; γδ T cells stimulated with IPP): enhanced
production of IL-4 (γδ T cells [2]; γδ T cells stimulated with IPP): not
IFN-γ production by γδ T cells (γδ T cells [3]): augmented
cytotoxicity of γδ T cells toward RPMI-8226 MM cell lines (RPMI-8226 MM cell lines; compound added during the 4 hr chromium release assay only, FIG. 9B): enhanced
cytotoxicity of γδ T cells toward RPMI-8226 MM cell lines (RPMI-8226 MM cell lines; compound added during the 22 day pretreatment, FIG. 9A): enhanced

Nc1cccc2c1CN(C1CCC(=O)NC1=O)C2=O (centres unmarked) [IMiD]
rituximab-mediated ADCC, mean % lysis ([4]; PBMC exposed to IMiD for 5 days): 26.9+/−1.18%
rituximab-mediated ADCC, mean % lysis ([4]; PBMC exposed to IMiD+IL-2 for 5 days): 38.4+/−4.14%
mean % of lysis by ADCC ([5]; IMiD exposed PBMC): 26.5+/−1.83%
mean % of lysis by ADCC ([5]; combination IMiD/IL-2 exposed PBMC): 38.4+/−4.1%

Nc1cccc2c1CN(C1CCC(=O)NC1=O)C2=O (centres unmarked) [lenalidomide, 3-(4-amino-1-oxo-1,3-dihydro-isoindol-2-yl)-piperidine-2,6-dione]
suppressive function of Treg on anti-CD3 mAb activated CD4+CD25- cells (regulatory T cells): inhibits the suppressive function
effect in combination with anti CD20 antibody B1 (Raji cells): minimal
inhibition of Gab2 phosphorylation (Gab2): approximately 50%

O=C1CCC(N2C(=O)c3ccccc3C2=O)C(=O)N1 (centres unmarked) [thalidomide, reference compound]
proliferation of CD25- cells in the presence of CD25+CD4+ cells, compared to DMSO treated CD4+CD25+ cells (regulatory T cells; Treg treated 24 hours, washed, 1:2 ratio with CD25-CD4+ cells, FIG. 2): little effect
Foxp3 expression (Foxp3): little effects

Reference: patent publication US8715677B2, “Immunological uses of immunomodulatory compounds for vaccine and anti-infectious disease therapy” (Celgene Corporation, priority 2005, dated 2014)
